Where “and” joins values, the source holds several entries; their conditions need not be identical. Equal entries are not always repeated. Inconclusive results and toxic doses are left out. No stated cut-off is given here; in the data, active means T/C of 150% or more; inactive means T/C below 125%.
Tested on: L1210 leukemia ip in BDF1 mice, survival T/C
Test: NCI In Vivo Anticancer Drug Screen. Data for tumor model L1210 Leukemia (intraperitoneal) in B6D2F1 (BDF1) mice
Conditions: endpoint: mean survival time, higher = longer survival
Procedure, shortened: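 Ratio derived from survival: compound-dosed mice over vehicle-dosed mice, all bearing a transplantable tumor.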

[1] = dose: 100.0 mg/kg/injection, schedule: Q01DX009 (ip), vehicle: Klucel (hydroxypropylcellulose) (HPC)
[2] = dose: 100.0 mg/kg/injection, schedule: Q04DX003 (ip), vehicle: Klucel (hydroxypropylcellulose) (HPC)
[3] = dose: 200.0 mg/kg/injection, schedule: Q01DX009 (ip), vehicle: Klucel (hydroxypropylcellulose) (HPC)
[4] = dose: 200.0 mg/kg/injection, schedule: Q04DX003 (ip), vehicle: Klucel (hydroxypropylcellulose) (HPC)
[5] = dose: 400.0 mg/kg/injection, schedule: Q04DX003 (ip), vehicle: Klucel (hydroxypropylcellulose) (HPC)
[6] = dose: 25.0 mg/kg/injection, schedule: Q01DX009 (ip), vehicle: saline
[7] = dose: 50.0 mg/kg/injection, schedule: Q01DX009 (ip), vehicle: saline
[8] = dose: 100.0 mg/kg/injection, schedule: Q01DX009 (ip), vehicle: saline
[9] = dose: 100.0 mg/kg/injection, schedule: Q04DX003 (ip), vehicle: saline
[10] = dose: 200.0 mg/kg/injection, schedule: Q01DX009 (ip), vehicle: saline
[11] = dose: 200.0 mg/kg/injection, schedule: Q04DX003 (ip), vehicle: saline
[12] = dose: 400.0 mg/kg/injection, schedule: Q04DX003 (ip), vehicle: saline
[13] = dose: 100.0 mg/kg/injection, schedule: Q04DX002 (ip), vehicle: Klucel (hydroxypropylcellulose) (HPC)
[14] = dose: 200.0 mg/kg/injection, schedule: Q04DX002 (ip), vehicle: Klucel (hydroxypropylcellulose) (HPC)
[15] = dose: 400.0 mg/kg/injection, schedule: Q04DX002 (ip), vehicle: Klucel (hydroxypropylcellulose) (HPC)
[16] = dose: 100.0 mg/kg/injection, schedule: Q01DX009 (ip), vehicle: saline with Tween-80
[17] = dose: 200.0 mg/kg/injection, schedule: Q01DX009 (ip), vehicle: saline with Tween-80
[18] = dose: 100.0 mg/kg/injection, schedule: Q01DX001 (ip), vehicle: saline
[19] = dose: 200.0 mg/kg/injection, schedule: Q01DX001 (ip), vehicle: saline
[20] = dose: 400.0 mg/kg/injection, schedule: Q01DX001 (ip), vehicle: saline
[21] = dose: 100.0 mg/kg/injection, schedule: Q04DX003 (ip), vehicle: carboxymethylcellulose (CMC)
[22] = dose: 200.0 mg/kg/injection, schedule: Q04DX003 (ip), vehicle: carboxymethylcellulose (CMC)

Measured: T/C

CCCCN=C=NCCCN(C)C
inactive: dose: 62.5 mg/kg/injection, schedule: Q04DX003 (ip), vehicle: Klucel (hydroxypropylcellulose) (HPC) 103 % of control | dose: 125.0 mg/kg/injection, schedule: Q04DX003 (ip), vehicle: Klucel (hydroxypropylcellulose) (HPC) 96 % of control | dose: 250.0 mg/kg/injection, schedule: Q04DX003 (ip), vehicle: Klucel (hydroxypropylcellulose) (HPC) 92 % of control

C=CCN(C(=O)OCC)c1ccccc1
inactive: [1] 110 % of control | [2] 95 % of control | [3] 108 % of control | [4] 106 % of control | dose: 400.0 mg/kg/injection, schedule: Q01DX009 (ip), vehicle: Klucel (hydroxypropylcellulose) (HPC) 93 % of control | [5] 106 % of control

C1CCC2C(C1)C2(N1CCCC1)N1CCCC1 (stereo not given)
inactive: dose: 6.25 mg/kg/injection, schedule: Q01DX009 (ip), vehicle: Klucel (hydroxypropylcellulose) (HPC) 101 % of control | dose: 12.5 mg/kg/injection, schedule: Q01DX009 (ip), vehicle: Klucel (hydroxypropylcellulose) (HPC) 100 % of control | dose: 12.5 mg/kg/injection, schedule: Q04DX003 (ip), vehicle: Klucel (hydroxypropylcellulose) (HPC) 98 % of control | dose: 25.0 mg/kg/injection, schedule: Q01DX009 (ip), vehicle: Klucel (hydroxypropylcellulose) (HPC) 93 % of control and 92 % of control | dose: 25.0 mg/kg/injection, schedule: Q04DX003 (ip), vehicle: Klucel (hydroxypropylcellulose) (HPC) 98 % of control | dose: 50.0 mg/kg/injection, schedule: Q04DX003 (ip), vehicle: Klucel (hydroxypropylcellulose) (HPC) 94 % of control

CCOC(=O)N(Cc1ccccc1)C1CC1
inactive: [6] 95 % of control | dose: 25.0 mg/kg/injection, schedule: Q04DX003 (ip), vehicle: saline 104 % of control | [7] 104 % of control | [8] 102 % of control | [9] 104 % of control | [10] 98 % of control | [11] 104 % of control | dose: 400.0 mg/kg/injection, schedule: Q01DX009 (ip), vehicle: saline 103 % of control | [12] 102 % of control

Oc1ccc(-c2cc3c(O)ccc(O)c3[nH]2)cc1O
inactive: dose: 25.0 mg/kg/injection, schedule: Q04DX002 (ip), vehicle: Klucel (hydroxypropylcellulose) (HPC) 86 % of control | dose: 50.0 mg/kg/injection, schedule: Q04DX002 (ip), vehicle: Klucel (hydroxypropylcellulose) (HPC) 93 % of control | [13] 89 % of control

CCN(CC)CCN(CC)CCN(CC)CC
inactive: [8] 94 % of control | [10] 115 % of control

COc1ccc([N+](=O)[O-])cc1NC(=O)Nc1ccccc1C(N)=O
inactive: dose: 50.0 mg/kg/injection, schedule: Q01DX009 (ip), vehicle: Klucel (hydroxypropylcellulose) (HPC) 105 % of control | [1] 101 % of control | [3] 97 % of control

c1ccc(C(CN2CCCCC2)c2ccccc2)cc1
inactive: dose: 44.0 mg/kg/injection, schedule: Q01DX Z (ip), vehicle: methylcellulose (MC) 93 % of control | dose: 66.0 mg/kg/injection, schedule: Q01DX Z (ip), vehicle: methylcellulose (MC) 96 % of control | dose: 100.0 mg/kg/injection, schedule: Q01DX Z (ip), vehicle: methylcellulose (MC) 105 % of control

O=C(COc1ccc(Cl)cc1)Nc1ccc(I)cc1
inactive: [13] 92 % of control | [14] 100 % of control | [15] 96 % of control

O=C(Nc1ccc([N+](=O)[O-])cc1Cl)Sc1ccccc1O
inactive: [16] 104 % of control | [17] 104 % of control | dose: 400.0 mg/kg/injection, schedule: Q01DX009 (ip), vehicle: saline with Tween-80 86 % of control

O=CO.[Pb]
inactive: [18] 90 % of control | [19] 92 % of control | [20] 98 % of control

c1ccc2c(c1)NC(C1Nc3ccccc3S1)S2 (stereo not given)
inactive: dose: 100.0 mg/kg/injection, schedule: Q01DX001 (ip), vehicle: acetone 90 % of control | [2] 93 % of control | dose: 200.0 mg/kg/injection, schedule: Q01DX001 (ip), vehicle: acetone 88 % of control | [4] 93 % of control | dose: 400.0 mg/kg/injection, schedule: Q01DX001 (ip), vehicle: acetone 88 % of control | [5] 90 % of control

CC(C)c1ccc(C(=O)O)cc1S(=O)(=O)F
inactive: [16] 95 % of control | [17] 98 % of control

O=C(O)/C=C\c1cn(C2OC(CO)C(O)C(O)C2O)c2ccccc12 (stereo not given)
inactive: dose: 60.0 mg/kg/injection, schedule: Q01DX001 (ip), vehicle: sodium bicarbonate 105 % of control | dose: 120.0 mg/kg/injection, schedule: Q01DX001 (ip), vehicle: sodium bicarbonate 97 % of control

COC(=O)N/N=C/c1cc(OC)ccc1O
inactive: [13] 97 % of control | [14] 114 % of control | [15] 104 % of control

Nc1nc(=S)nc(N)[nH]1
inactive: [6] 101 % of control | [7] 103 % of control | [8] 97 % of control

O=C(/C=C/c1ccccc1)NC(=S)NC1CCCCC1
inactive: dose: 50.0 mg/kg/injection, schedule: Q01DX009 (ip), vehicle: carboxymethylcellulose (CMC) 101 % of control and 102 % of control | dose: 50.0 mg/kg/injection, schedule: Q04DX003 (ip), vehicle: carboxymethylcellulose (CMC) 103 % of control | dose: 100.0 mg/kg/injection, schedule: Q01DX009 (ip), vehicle: carboxymethylcellulose (CMC) 97 % of control and 90 % of control | dose: 100.0 mg/kg/injection, schedule: Q04DX002 (ip), vehicle: carboxymethylcellulose (CMC) 100 % of control and 106 % of control | [21] 96 % of control | dose: 200.0 mg/kg/injection, schedule: Q01DX009 (ip), vehicle: carboxymethylcellulose (CMC) 93 % of control and 91 % of control | dose: 200.0 mg/kg/injection, schedule: Q04DX002 (ip), vehicle: carboxymethylcellulose (CMC) 103 % of control and 91 % of control | [22] 96 % of control | dose: 400.0 mg/kg/injection, schedule: Q04DX002 (ip), vehicle: carboxymethylcellulose (CMC) 87 % of control

OCC1(CO)CCCCO1
inactive: [9] 96 % of control | [11] 95 % of control | [12] 101 % of control

COc1ccc2c(c1OC)CN(C)CCc1cc3c(cc1C(=O)C2)OCO3
inactive: dose: 100.0 mg/kg/injection, schedule: Q01DX001 (ip), vehicle: carboxymethylcellulose (CMC) 96 % of control | dose: 200.0 mg/kg/injection, schedule: Q01DX001 (ip), vehicle: carboxymethylcellulose (CMC) 96 % of control | dose: 400.0 mg/kg/injection, schedule: Q01DX001 (ip), vehicle: carboxymethylcellulose (CMC) 100 % of control

O/N=C1/CC2CCC(C2)C1(O)c1ccccc1 (stereo not given)
inactive: [18] 103 % of control | [19] 113 % of control | [20] 103 % of control

CCC1CC2c3cc(OC)c(OC)cc3CCN2CC1(O)Cc1ccncc1 (stereo not given)
inactive: [21] 100 % of control | [22] 104 % of control

CCOCC[P+](c1ccccc1)(c1ccccc1)c1ccccc1
inactive: dose: 5.0 mg/kg/injection, schedule: Q01DX001 (ip), vehicle: saline 92 % of control | dose: 10.0 mg/kg/injection, schedule: Q01DX001 (ip), vehicle: saline 92 % of control | dose: 10.0 mg/kg/injection, schedule: Q01DX015 (ip), vehicle: saline 90 % of control | dose: 20.0 mg/kg/injection, schedule: Q01DX001 (ip), vehicle: saline 106 % of control | dose: 40.0 mg/kg/injection, schedule: Q01DX001 (ip), vehicle: saline 105 % of control

OC(CCl)CNc1ccc(-c2ccccc2)cc1 (stereo not given)
inactive: dose: 100.0 mg/kg/injection, schedule: Q01DX001 (ip), vehicle: other 94 % of control | [2] 100 % of control | dose: 200.0 mg/kg/injection, schedule: Q01DX001 (ip), vehicle: other 92 % of control | [4] 86 % of control | dose: 400.0 mg/kg/injection, schedule: Q01DX001 (ip), vehicle: other 97 % of control
